A short description of data set [1]: Aqueous solubility of the compound in phosphate buffered saline at pH 7.1 by shake-flask method. In kind it is physicochemical.
The nature of data set [2]: Aqueous solubility of the compound in citrate buffer at pH 5 by shake-flask method. In kind it is physicochemical.
The target in a further data set is Cannabinoid receptor 1 (Homo sapiens, UniProt P21554).
Cannabinoid receptor 1, sequence (P21554 whole entry): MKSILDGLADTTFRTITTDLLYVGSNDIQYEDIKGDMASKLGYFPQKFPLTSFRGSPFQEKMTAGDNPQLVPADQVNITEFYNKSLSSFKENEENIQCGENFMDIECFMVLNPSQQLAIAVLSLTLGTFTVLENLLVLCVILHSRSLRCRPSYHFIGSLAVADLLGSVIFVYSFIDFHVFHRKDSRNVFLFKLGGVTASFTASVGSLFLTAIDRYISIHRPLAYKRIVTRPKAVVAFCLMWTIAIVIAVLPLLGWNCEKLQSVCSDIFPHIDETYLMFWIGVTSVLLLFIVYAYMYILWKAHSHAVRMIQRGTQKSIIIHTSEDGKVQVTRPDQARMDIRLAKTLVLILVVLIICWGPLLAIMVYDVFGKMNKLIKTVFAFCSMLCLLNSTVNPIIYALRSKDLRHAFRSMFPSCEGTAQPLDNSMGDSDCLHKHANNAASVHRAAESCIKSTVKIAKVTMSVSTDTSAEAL

Description for Cannabinoid receptor 1: Agonist activity at human cannabinoid CB1 receptor expressed in CHO cells co-expressing AP-1 response element after 5 hrs by luciferase reporter gene assay

As a reminder, the thermodynamic solubility is solubility found after equilibrating the solid with the medium. A word on the EC50: it is the concentration that produces a half-maximal response. Read a low EC50 as an effect from little substance. For `CCN1CCN(C(=O)c2cn(CC3CCCCC3)c3c(OC)cccc23)C[C@H]1C.Cl`, the results for the solubility (thermodynamic) in data set [1] and in data set [2] were 74 µg/mL and > 4000 µg/mL, respectively. This compound also had an EC50 on Cannabinoid receptor 1 of 631 nM.

In the case of `CCN1CCN(C(=O)c2cn(CC3CCCCC3)c3c(OC)cccc23)C[C@@H]1C.Cl`, the thermodynamic solubility was 37 µg/mL in data set [1] and > 4000 µg/mL in data set [2]. Also, the EC50 on Cannabinoid receptor 1 was 39.8 nM.

As for `CCN1CCN(C(=O)c2cn(CC3CCCCC3)c3cc(Br)ccc23)CC1`, a half-maximal effect on Cannabinoid receptor 1 (EC50) was put at 1000 nM.

Regarding `Cc1ccc2c(C(=O)N3CCN(C)CC3)cn(CC3CCCCC3)c2c1`, at Cannabinoid receptor 1, the EC50 was 316 nM.

The compound `CCN1CCN(C(=O)c2cn(CC3CCCCC3)c3c(Br)cccc23)CC1` showed an EC50 on Cannabinoid receptor 1 of 794 nM.

The compound `Cc1ccc2c(c1)c(C(=O)N1CCN(C)CC1)cn2CC1CCCCC1` gave an EC50 on Cannabinoid receptor 1 of 2000 nM.

In the case of `CCN1CCN(C(=O)c2cn(CC3CCCCC3)c3ccc(Cl)cc23)CC1`, the EC50 on Cannabinoid receptor 1 was 1260 nM.

At Cannabinoid receptor 1, `CCN1CCN(C(=O)c2cn(CC3CCCCC3)c3ccccc23)CC1` showed an EC50 of 316 nM.

As for `CN(C)CCNC(=O)c1cn(CC2CCCCC2)c2ccccc12`, the EC50 at Cannabinoid receptor 1 is > 3160 nM.

`CCN1CCN(C(=O)c2cn(CCN3CCOCC3)c3c(OC)cccc23)CC1`: at Cannabinoid receptor 1, the EC50 was > 3160 nM.

Turning to `CCN1CCN(C(=O)c2cn(CC3CCCCC3)c3cc(F)ccc23)CC1`, it took 251 nM to reach a half-maximal effect on Cannabinoid receptor 1 (EC50).

For the compound `CCN1CCN(C(=O)c2cn(CC3CCCCC3)c3c(C)cccc23)CC1`, the EC50 at Cannabinoid receptor 1 is 200 nM.

As for `CCN1CCN(C(=O)c2cn(CC3CCCCC3)c3ccc(F)cc23)CC1`, the EC50 at Cannabinoid receptor 1 was 501 nM.

For `Cc1cccc2c1c(C(=O)N1CCN(C)CC1)cn2CC1CCCCC1`, the EC50 at Cannabinoid receptor 1 is > 3160 nM.

`O=C(N/N=C1\C(=O)N(Cc2ccccc2)c2ccccc21)c1ccccc1`: on Cannabinoid receptor 1, the EC50 was 631 nM.

Regarding `CCN1CCN(C(=O)c2cn(CC3CCCCCC3)c3c(OC)cccc23)CC1`, the EC50 on Cannabinoid receptor 1 is 794 nM.

Compound `CCN1CCN(C(=O)c2cn(CC3CCCCC3)c3c(Cl)cccc23)CC1` gave an EC50 on Cannabinoid receptor 1 of 501 nM.

The record behind these values is ChEMBL document CHEMBL3390831, “Design, synthesis, and structureactivity relationships of indole-3-carboxamides as novel water soluble cannabinoid CB1 receptor agonists” (Medchemcomm, 2010).
